Results published in patent publication US9745267B2, “Compounds as modulators of RORC” (Boehringer Ingelheim International GmbH, priority 2013, dated 2017).

target: T1, RORγt (hRORC LBD) (Homo sapiens, UniProt P51449); assay: RGA Assay: nuclear receptor transactivation assay, RORγt transactivation of a luciferase reporter; format: cell-based; settings: transiently transfected HEK 293 cells, Gal4DBD hRORC LBD, 20-24 hours incubation
T1 construct: expressed in transfected cells; host or cells: HEK 293 (transient cotransfection with pGL4.3 luc2P/GAL4UAS/Hygro reporter)
T1 sequence (P51449 269-508 limits assumed): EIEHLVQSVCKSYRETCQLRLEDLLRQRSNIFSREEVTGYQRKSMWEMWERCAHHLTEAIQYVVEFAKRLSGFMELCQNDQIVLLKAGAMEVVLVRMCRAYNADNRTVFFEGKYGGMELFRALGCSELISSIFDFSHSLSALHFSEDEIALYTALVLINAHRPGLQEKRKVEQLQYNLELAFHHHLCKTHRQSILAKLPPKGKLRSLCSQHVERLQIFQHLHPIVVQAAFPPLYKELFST
Protocol: A nuclear receptor transactivation assay was performed to quantitate the ability of test compounds to inhibit RORγt transactivation of a luciferase reporter. A similar assay is described in: Khan et al., Bioorganic & Medicinal Chemistry Letters 23 (2013), 532-536. The system uses transiently transfected HEK 293 cells cotransfected with two plasmids (pGL4.3, luc2P/GAL4UAS/Hygro, and pBIND, Gal4DBD hRORC LBD1-3). The positive control is co-transiently transfected with both plasmids, and the negative control contains the pGL4.3 promoter sequence. Assays were assembled in 384 well plates where transiently transfected cells and test compound at varying concentrations were incubated for 20-24 hours. The next day, assays plates are taken out and equilibrated at RT for 20-30 minutes. Bright-Glo™ Luciferase Assay System is used to detect Luciferase production. After addition of Bright GLO detection reagent, the plates were incubated at RT for 20 minutes. The plates were read on an Envision plate reader to measure luminescence signal. The RLU signal is converted to POC relative to control and blank wells.
Compound Dilution Buffer:
Bright Glo Luciferase Assay System: Promega #E2620
Thaw lysis buffer provided in kit, add 100 mL lysis buffer to substrate powder.

| SMILES | IC50 [nM] |
| --- | --- |
| CNS(=O)(=O)c1ccc(CNC(=O)N2CC3(CCCC3)c3cc(Oc4cc(OC)ccc4C)ccc32)cc1 [Example 63] | 1400 |
| CCCC1(C)CN(C(=O)NCc2ccc(S(=O)(=O)NC)cc2)c2ccc(-c3ccc(OC)cc3C(F)(F)F)cc21 (centres unmarked) [Example 64] | 470 |
| CCCC1(C)CN(C(=O)NCc2ccc(S(=O)(=O)NC)cc2)c2ccc(-c3ccc(F)cc3C)cc21 (centres unmarked) [Example 65] | 1500 |
| CCS(=O)(=O)c1ccc(CNC(=O)N2CC3(CCCC3)c3cc(-c4ccc(OC)cc4C(F)(F)F)ccc32)cc1 [Example 66] | 410 |
| CCS(=O)(=O)c1ccc(CNC(=O)N2CC3(CCCC3)c3cc(-c4ccc(O)cc4C)ccc32)cc1 [Example 67] | 410 |
| CCS(=O)(=O)c1ccc(CNC(=O)N2CC3(CCCC3)c3cc(-c4ccc(CO)cc4C)ccc32)cc1 [Example 69] | 1100 |
| CCS(=O)(=O)c1ccc(CNC(=O)N2CC3(CCCC3)c3cc(-c4ccc(C)cc4C#N)ccc32)cc1 [Example 70] | 1300 |
| CCS(=O)(=O)c1ccc(CNC(=O)N2CC3(CCCC3)c3cc(-c4ccc(C#N)cc4C)ccc32)cc1 [Example 71] | 740 |
| CCS(=O)(=O)c1ccc(CNC(=O)N2CC3(CCCC3)c3cc(-c4cc(F)ccc4CC#N)ccc32)cc1 [Example 72] | 1200 |
| CCS(=O)(=O)c1ccc(CNC(=O)N2CC3(CCCC3)c3cc(-c4cncnc4C(C)C)ccc32)cc1 [Example 76] | 610 |
| CCS(=O)(=O)c1ccc(CNC(=O)N2CC3(CCCC3)c3cc(-c4ccccc4-c4cnco4)ccc32)cc1 [Example 78] | 790 |
| COc1ccc(-c2ccc3c(c2)C2(CCCC2)CN3C(=O)NCc2ccc(C#N)cc2)c(C(F)(F)F)c1 [Example 82] | 1100 |
| CNS(=O)(=O)c1ccc(CNC(=O)N2CC3(CCCC3)c3cc(-c4c(C)cc(CO)cc4C)ccc32)cc1 [Example 89] | 990 |
| CNS(=O)(=O)c1ccc(CNC(=O)N2CC3(CCCC3)c3cc(-c4cc(F)c(C#N)cc4C)ccc32)cc1 [Example 93] | 1200 |
| CNS(=O)(=O)c1ccc(CNC(=O)N2CC3(CCCC3)c3cc(C4=C(C)CCCC4)ccc32)cc1 [Example 95] | 340 |
| COc1ccc(-c2ccc3c(c2)C2(CCCC2)CN3C(=O)NCc2ccc(C#N)cc2OC)c(C(F)(F)F)c1 [Example 96] | 450 |
| COc1ccc(-c2ccc3c(c2)C2(CCCC2)CN3C(=O)NCc2ccc(C#N)c(C)c2)c(C(F)(F)F)c1 [Example 97] | 770 |

| SMILES | IC50 [nM] |
| --- | --- |
| COCCOc1cc(C#N)ccc1CNC(=O)N1CC2(CCCC2)c2cc(-c3ccc(OC)cc3C(F)(F)F)ccc21 [Example 100] | 1200 |
| COCCOc1cc(S(C)(=O)=O)ccc1CNC(=O)N1CC2(CCCC2)c2cc(-c3ccc(OC)cc3C(F)(F)F)ccc21 [Example 101] | 1100 |
| COc1cc(C#N)ccc1CNC(=O)N1CC2(CCCC2)c2cc(-c3ccc(O)cc3C(F)(F)F)ccc21 [Example 102] | 180 |
| CNS(=O)(=O)c1ccc(CNC(=O)N2CC3(CCCC3)c3cc(-c4cc(CN5CCC(O)C5)ccc4C)ccc32)cc1 (centres unmarked) [Example 103] | 1800 |
| CCS(=O)(=O)c1ccc(CNC(=O)N2CC3(CCCC3)c3cc(-c4ccc(OC)cc4C(F)(F)F)ccc32)c(OC)c1 [Example 104] | 350 |
| COc1ccc(-c2ccc3c(c2)C2(CCCC2)CN3C(=O)NCc2ccc(S(C)(=O)=O)cc2OC)c(C(F)(F)F)c1 [Example 105] | 430 |
| CN(C)c1ncc(-c2ccc3c(c2)C2(CCCC2)CN3C(=O)NCc2ccc(S(C)(=O)=O)cc2)c(C(F)(F)F)n1 [Example 106] | 650 |
| CCC(C)c1ncncc1-c1ccc2c(c1)C1(CCCC1)CN2C(=O)NCc1ccc(S(C)(=O)=O)cc1 (centres unmarked) [Example 107] | 1500 |
| COc1ncc(-c2ccc3c(c2)C2(CCCC2)CN3C(=O)NCc2ccc(S(C)(=O)=O)cc2)c(C2CC2)n1 [Example 108] | 1600 |
| COc1ncnc(C)c1-c1ccc2c(c1)C1(CCCC1)CN2C(=O)NCc1ccc(S(C)(=O)=O)cc1 [Example 109] | 1700 |
| COc1ncnc(C(F)(F)F)c1-c1ccc2c(c1)C1(CCCC1)CN2C(=O)NCc1ccc(S(C)(=O)=O)cc1 [Example 110] | 600 |
| CCS(=O)(=O)c1ccc(CNC(=O)N2CC3(CCCC3)c3cc(-c4cnc(N)nc4C(F)(F)F)ccc32)cc1 [Example 111] | 1700 |
| CCS(=O)(=O)c1ccc(CNC(=O)N2CC3(CCCC3)c3cc(-c4c(OC)ncnc4C4CC4)ccc32)cc1 [Example 112] | 520 |
| CCS(=O)(=O)c1ccc(CNC(=O)N2CC(C)(C3CC3)c3cc(-c4cncnc4C(C)C)ccc32)cc1 (centres unmarked) [Example 113] | 530 |
| CCS(=O)(=O)c1ccc(CNC(=O)N2CC3(CCCC3)c3cc(-c4c(C)ccnc4OC)ccc32)cc1 [Example 114] | 500 |
| CCS(=O)(=O)c1ccc(CNC(=O)N2CC(C)(C3CCC3)c3cc(-c4cncnc4C(C)C)ccc32)cc1 (centres unmarked) [Example 116] | 1000 |
| CCS(=O)(=O)c1ccc(CNC(=O)N2CC(C)(C3CCC3)c3cc(-c4c(OC)ncnc4C4CC4)ccc32)cc1 (centres unmarked) [Example 117] | 480 |

Other lines, results leading:

| IC50 [nM] | SMILES |
| --- | --- |
| 1900 | CNS(=O)(=O)c1ccc(CNC(=O)N2CC3(CCCC3)c3cc(-c4ccc(OC)nc4C)ccc32)cc1 [Example 68] |
| 460 | CNS(=O)(=O)c1ccc(CNC(=O)N2CC3(CCCC3)c3cc(-c4ccccc4OC(F)(F)F)ccc32)cc1 [Example 73] |
| 140 | CNS(=O)(=O)c1ccc(CNC(=O)N2CC3(CCCC3)c3cc(-c4c(F)cccc4C(F)(F)F)ccc32)cc1 [Example 75] |
| 760 | CNS(=O)(=O)c1ccc(CNC(=O)N2CC3(CCCC3)c3cc(-c4cccc(F)c4C)ccc32)cc1 [Example 77] |
| 940 | CNS(=O)(=O)c1ccc(CNC(=O)N2CC3(CCCC3)c3cc(-c4cc(F)ccc4C(=O)OC)ccc32)cc1 [Example 79] |
| 970 | CCOC(=O)c1ccc(F)cc1-c1ccc2c(c1)C1(CCCC1)CN2C(=O)NCc1ccc(S(=O)(=O)NC)cc1 [Example 80] |
| 980 | CNS(=O)(=O)c1ccc(CNC(=O)N2CC3(CCCC3)c3cc(-c4ccccc4COC(C)(C)C)ccc32)cc1 [Example 81] |
| 370 | CNS(=O)(=O)c1ccc(CNC(=O)N2CC3(CCCC3)c3cc(-c4cc(C)c(OC)cc4C)ccc32)cc1 [Example 83] |
| 1300 | CNS(=O)(=O)c1ccc(CNC(=O)N2CC3(CCCC3)c3cc(-c4ccc(F)cc4C(=O)OC)ccc32)cc1 [Example 85] |
| 1000 | CNS(=O)(=O)c1ccc(CNC(=O)N2CC3(CCCC3)c3cc(-c4ccccc4C(C)(C)O)ccc32)cc1 [Example 86] |
| 680 | CNS(=O)(=O)c1ccc(CNC(=O)N2CC3(CCCC3)c3cc(-c4ccccc4CC(F)(F)F)ccc32)cc1 [Example 87] |
| 910 | CNS(=O)(=O)c1ccc(CNC(=O)N2CC3(CCCC3)c3cc(-c4ccc(O)cc4C#N)ccc32)cc1 [Example 88] |
| 580 | CNS(=O)(=O)c1ccc(CNC(=O)N2CC3(CCCC3)c3cc(-c4c(C)ccc(F)c4CC#N)ccc32)cc1 [Example 90] |
| 870 | CNS(=O)(=O)c1ccc(CNC(=O)N2CC3(CCCC3)c3cc(-c4c(C)cccc4C#N)ccc32)cc1 [Example 91] |
| 1100 | CNS(=O)(=O)c1ccc(CNC(=O)N2CC3(CCCC3)c3cc(-c4cc(O)ccc4C)ccc32)cc1 [Example 92] |
| 1200 | CNS(=O)(=O)c1ccc(CNC(=O)N2CC3(CCCC3)c3cc(-c4cc(CN)ccc4C)ccc32)cc1 [Example 98] |
